Source: ChEMBL document CHEMBL1201862, “PubChem BioAssay data set” (2004)
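Growth conditions: 96-well plates. Treatment: test compound, 48 hours, 5 concentrations. Analysis: linear interpolation between bracketing concentrations; unreached endpoints set to highest concentration. The concentration for 50% growth inhibition is given as GI50.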 The source made the active and inactive calls. No stated cut-off is given here; in the data, active = GI50 up to about 1.1 µM and inactive = higher.

Tests used:
Test in all cases: NCI tumour cell line growth inhibition, 48 h
[1] = system: 786-0
[2] = system: A498
[3] = system: ACHN
[4] = system: BT-549
[5] = system: CCRF-CEM
[6] = system: DU-145
[7] = system: EKVX
[8] = system: HCT-116
[9] = system: HCT-15
[10] = system: HOP-62
[11] = system: HOP-92
[12] = system: HT-29
[13] = system: IGROV-1
[14] = system: KM12
[15] = system: LOX IMVI
[16] = system: M14
[17] = system: MCF7
[18] = system: MDA-MB-231
[19] = system: MDA-MB-435
[20] = system: MDA-N
[21] = system: NCI-H460
[22] = system: NCI/ADR-RES
[23] = system: OVCAR-8
[24] = system: PC-3
[25] = system: RXF 393
[26] = system: SF-268
[27] = system: SF-295
[28] = system: SK-MEL-28
[29] = system: SK-MEL-2
[30] = system: SK-OV-3
[31] = system: SN12C
[32] = system: SNB-19
[33] = system: SNB-75
[34] = system: T47D
[35] = system: TK-10
[36] = system: UACC-257
[37] = system: UO-31
[38] = system: A549
[39] = system: CAKI-1
[40] = system: COLO 205
[41] = system: HCC 2998
[42] = system: HL-60
[43] = system: Hs-578T
[44] = system: K562
[45] = system: MOLT-4
[46] = system: Malme-3M
[47] = system: NCI-H226
[48] = system: NCI-H23
[49] = system: NCI-H522
[50] = system: OVCAR-3
[51] = system: OVCAR-4
[52] = system: OVCAR-5
[53] = system: RPMI-8226
[54] = system: SF-539
[55] = system: SK-MEL-5
[56] = system: SR
[57] = system: SW-620
[58] = system: U-251
[59] = system: UACC-62

Cc1c(F)c(N)c2c(=O)cc(-c3ccc(NC(=O)[C@@H](N)CCCCN)c(F)c3)oc2c1F
GI50 [1]: 9.31 µM (inactive) | GI50 [2]: 0.0537 µM (active) | GI50 [3]: 12.9 µM (inactive) | GI50 [4]: 24.4 µM (inactive) | GI50 [5]: 3.52 µM (inactive) | GI50 [6]: 13.7 µM (inactive) | GI50 [7]: 6.68 µM (inactive) | GI50 [8]: 2.88 µM (inactive) | GI50 [9]: 11.2 µM | GI50 [10]: 7.59 µM (inactive) | GI50 [11]: 18.6 µM (inactive) | GI50 [12]: 13.1 µM (inactive) | GI50 [13]: 0.0418 µM (active) | GI50 [14]: 9.33 µM (inactive) | GI50 [15]: 8.83 µM (inactive) | GI50 [16]: 16.4 µM (inactive) | GI50 [17]: 0.033 µM (active) | GI50 [18]: 13.2 µM (inactive) | GI50 [19]: 7.21 µM (inactive) | GI50 [20]: 7.26 µM (inactive) | GI50 [21]: 0.101 µM (active) | GI50 [22]: 21.4 µM (inactive) | GI50 [23]: 11 µM (inactive) | GI50 [24]: 15.3 µM (inactive) | GI50 [25]: 18.2 µM (inactive) | GI50 [26]: 11.9 µM (inactive) | GI50 [27]: 15.6 µM (inactive) | GI50 [28]: 13.2 µM (inactive) | GI50 [29]: 21.3 µM (inactive) | GI50 [30]: 15.1 µM (inactive) | GI50 [31]: 14.9 µM (inactive) | GI50 [32]: 18.4 µM (inactive) | GI50 [33]: 4.68 µM (inactive) | GI50 [34]: 0.159 µM (active) | GI50 [35]: 0.134 µM (active) | GI50 [36]: 0.242 µM (active) | GI50 [37]: 7.83 µM (inactive)

COc1ccc(C(O)CC(O)(C(F)(F)F)C(F)(F)F)cc1 (stereo not given)
GI50 [1]: 32.4 µM (inactive) | GI50 [2]: 21.9 µM (inactive) | GI50 [38]: 21.5 µM (inactive) | GI50 [3]: 29.6 µM (inactive) | GI50 [39]: 15 µM (inactive) | GI50 [5]: 20.8 µM (inactive) | GI50 [40]: 19.1 µM (inactive) | GI50 [6]: 47 µM (inactive) | GI50 [7]: 31.3 µM (inactive) | GI50 [41]: 38 µM (inactive) | GI50 [8]: 16.6 µM (inactive) | GI50 [9]: 34.8 µM | GI50 [42]: 18.7 µM (inactive) | GI50 [10]: 26.4 µM (inactive) | GI50 [11]: 15.8 µM (inactive) | GI50 [12]: 28.8 µM (inactive) | GI50 [43]: 16.3 µM (inactive) | GI50 [13]: 26.8 µM (inactive) | GI50 [44]: 25.6 µM (inactive) | GI50 [14]: 51.3 µM (inactive) | GI50 [15]: 18.2 µM (inactive) | GI50 [16]: 32.8 µM (inactive) | GI50 [17]: 61.4 µM (inactive) | GI50 [18]: 20 µM (inactive) | GI50 [19]: 31.9 µM (inactive) | GI50 [20]: 46.2 µM (inactive) | GI50 [45]: 23.9 µM (inactive) | GI50 [46]: 16.8 µM (inactive) | GI50 [47]: 23.2 µM (inactive) | GI50 [48]: 19.5 µM (inactive) | GI50 [21]: 27.4 µM (inactive) | GI50 [49]: 32.1 µM (inactive) | GI50 [22]: 19.4 µM (inactive) | GI50 [50]: 22.2 µM (inactive) | GI50 [51]: 32.6 µM (inactive) | GI50 [52]: 27.5 µM (inactive) | GI50 [23]: 23 µM (inactive) | GI50 [24]: 11 µM (inactive) | GI50 [53]: 14.4 µM (inactive) | GI50 [25]: 20.1 µM (inactive) | GI50 [26]: 39.9 µM (inactive) | GI50 [27]: 29.6 µM (inactive) | GI50 [54]: 21.7 µM (inactive) | GI50 [28]: 62.7 µM (inactive) | GI50 [29]: 17.6 µM (inactive) | GI50 [55]: 21.2 µM (inactive) | GI50 [30]: 54.1 µM (inactive) | GI50 [31]: 24.8 µM (inactive) | GI50 [32]: 24.9 µM (inactive) | GI50 [33]: 1.7 µM (inactive) | GI50 [56]: 22.9 µM (inactive) | GI50 [57]: 33 µM (inactive) | GI50 [34]: 41.8 µM (inactive) | GI50 [35]: 44.7 µM (inactive) | GI50 [58]: 37.4 µM (inactive) | GI50 [36]: 19.1 µM (inactive) | GI50 [59]: 22.8 µM (inactive) | GI50 [37]: 39.8 µM (inactive)
